Laboratory results reported in patent US5830504A, “Cooperative combinations of ligands contained within a matrix” (La Jolla Cancer Research Foundation, priority 1995, dated 1998).

How the values were obtained:
Format in all cases: cell-based
Rat-1 cells = experiment: DNA synthesis ([3H]-thymidine incorporation) in EGF-stimulated Rat-1 cells on vitronectin or collagen; details: 40 ng/ml EGF, 20 μg/ml coating, FIG. 6
Procedure: (§1) Rat-1 cells were plated at 1×10^5 cells/well on 24-well plates that had been coated for 12 hours either with 20 μg/ml of vitronectin or 20 μg/ml of type I collagen. Cells were incubated for 36 hours in Dulbecco's modified Eagle's medium containing 0.1% bovine serum albumin followed by addition of buffer or 40 ng/ml EGF (Boehringer Mannheim). After 15 hours, the cells were pulse-labeled with 1 μCi/ml [^3 H]-thymidine (specific activity 6.7 Ci/mmol, DuPont NEN) for 3 hours and thymidine incorporation into DNA was determined by liquid scintillation counting.
After being serum-starved, the cells were treated with buffer only (samples 1 and 2) or with EGF (samples 3 and 4). Data points are the average of triplicate samples.

[1] = test system: αv β3 integrin-IRS-1 association in HIRcB cells; experiment: Association of IRS-1 with the vitronectin receptor after insulin stimulation (immunoprecipitation, immunoblot, densitometry); details: insulin-stimulated HIRcB cells; 100 nM insulin; compared with IRS-1 from total cell lysate
Procedure: HIRcB cells were grown to 80% confluency in Dulbeccos's modified Eagle's medium (DMEM) containing 10% fetal calf serum (FCS) and 500 nM methotrexate, incubated in DMEM+0.1% BSA for 36 hours, and either left quiescent, or stimulated with 100 nM insulin (Sigma) for 3 minutes. Cell monolayers were rinsed with PBS, frozen with liquid nitrogen and lysed in NP-40 lysis buffer (20 mM Tris-HCl (pH 8.0), 1% NP-40, 10% glycerol, 137 mM NaCl, 1 mM CaCl2, 1 mM MgCl2, 1 mM sodium orthovanadate, 50 mM sodium fluoride, 1 mM phenylmethylsulfonylfluoride, 0.1 U/ml aprotinin, 10 μg/ml pepstatin A). HIRcB cells were immunoprecipitated with anti-αv β3 237 according to Suzuki et al., PNAS USA 83:8614 (1986), as shown in lanes 1 and 3, 237 preimmune serum in lane 2, anti-αv β3 1343 in lane 4, anti-αIIb β3 in lane 5, anti-α5 β1 488 in lane 6 (made according to Argraves et al., J. Cell Biol. 105:1183 (1987)) and an unrelated rabbit antiserum (lane 7). Anti-αv β3 1343 was obtained from a person (Telios Pharmaceuticals, Inc.) and anti-αIIb β3 from Dr. Elisabetta Dejana (Mario Negri Institute, Milan, Italy). Three anti-α5 β1 antibodies and six unrelated polyclonal antibodies tested gave results similar to those shown in lanes 6 and 7. […] In lane 8, anti-αv β3 237 immunocomplexes from insulin-treated cells were dissociated and reprecipitated with the same antibody as follows. […]

[2] = test system: FG-B human pancreatic carcinoma cells (αv β3 integrin positive); experiment: DNA synthesis ([3H]-thymidine incorporation into DNA) in insulin-stimulated FG-B cells on vitronectin or type I collagen; details: 100 mM insulin, plates coated with 10 μg/ml vitronectin or type I collagen, FIG. 4 columns 9, 10
Procedure: (§2) FG-B (columns 1, 2, 5, 6, 9, and 10) and FG-C cells (columns 3, 4, 7, 8, 11, and 12) were plated at 1×10^5 cells/well on 24-well plates that had been coated either with vitronectin (dark column) or type I collagen (open column) . Plates were coated with 10 μg/ml of either vitronectin or type I collagen for 12 hours followed by blocking with 0.5% bovine serum albumin For 2 hours. Cells were incubated for 36 hours in DMEM containing 10% FCS (columns 1 to 4), or in DMEM containing 0.1% BSA followed by addition of buffer (columns 5 to 8) or 100 mM insulin (columns 9 to 12). FCS is used as a control because it provides maximal stimulation owing to the presence of high levels of growth factors and adhesion proteins.
(§3) After 15 hours, the cells were pulse-labeled with 1 μCi/ml [^3 H]-thymidine (specific activity 6.7 Ci/mmol, DuPont NEN) for 3 hours and thymidine incorporation into DNA was determined by trichloroacetic acid precipitation and liquid scintillation counting. Error bars indicate the standard error of triplicate determinations.

[3] = test system: FG-C human pancreatic carcinoma cells (αv β3 integrin negative); experiment: DNA synthesis ([3H]-thymidine incorporation into DNA) in insulin-stimulated FG-C cells on vitronectin or type I collagen; details: FG-C cells lacking αv β3; 100 mM insulin; FIG. 4 columns 3, 4, 7, 8, 11, 12
Procedure: as §2, §3

NRK cells = experiment: DNA synthesis in IGF-1-stimulated NRK cells on vitronectin, collagen or laminin; details: data not shown
[4] = test system: human foreskin fibroblasts; experiment: DNA synthesis ([3H]-thymidine incorporation) in PDGF-stimulated human foreskin fibroblasts on vitronectin or collagen; details: 40 ng/ml PDGF-BB, 20 μg/ml coating, FIG. 5 column 3 vs 4
Procedure: as §1, with “Human foreskin fibroblasts (Coriell) were” for “Rat-1 cells were”, “vitronectin of” for “vitronectin or”, “ng/ml PDGF-BB” for “ng/ml EGF”
Cells were serum-starved and treated with buffer only (samples 1 and 2) or with PDGF (samples 3 and 4). Data points are the average of duplicate samples.

## Epidermal growth factor (NSDSECPLSHDGYCLHDGVCMYIEALDKYACNCVVGYIGERCQYRDLKWWELR; Epidermal growth factor; UniProt P01133 971-1023, looked up) [EGF, EGF from Boehringer Mannheim]
Rat-1 cells
  Response (DNA synthesis) to EGF on vitronectin versus collagen: same response

## insulin
[1]
  Share of IRS-1 complexed with the vitronectin receptor: Five to eight
[2]
  DNA synthesis in response to insulin, on vitronectin relative to collagen: about 2.5 fold
[3]
  Difference in DNA synthesis response on vitronectin and collagen: no difference

## insulin-like growth factor [IGF-1]
NRK cells
  DNA synthesis in response to IGF-1, on vitronectin relative to collagen or laminin: about 2.3 fold

## platelet derived growth factor [PDGF]
[4]
  DNA synthesis in response to PDGF, on vitronectin relative to collagen: about 2.3 fold
